From US12077503B2, “Substituted cyclic amides and their use as herbicides” (FMC CORPORATION, priority 2015, dated 2024)
Where two headings read alike, the source gives them in different places.

Experiments:
Assay type in all cases: in vivo
[1] = tested on: barnyardgrass (Echinochloa crus-galli); experiment: Test B flooded paddy test; conditions: Echinochloa crus-galli, Flood, 250 g ai/ha, read-out: Barnyardgrass plant response rating
How it was run: (§1)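 Visual ratings (0 none to 100 complete control) are relative to untreated plants, taken 13–15 d after treatment in a greenhouse. Test material went straight into floodwater standing 3 cm above the soil, kept constant, on plants at the 2-leaf stage.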

[2] = tested on: ducksalad (Heteranthera limosa); experiment: Test B flooded paddy test; conditions: Heteranthera limosa, Flood, 250 g ai/ha, read-out: Ducksalad plant response rating
How it was run: as §1

[3] = tested on: sedge, umbrella (small-flower umbrella sedge, Cyperus difformis); experiment: Test B flooded paddy test; conditions: Cyperus difformis, Flood, 250 g ai/ha, read-out: Sedge, Umbrella plant response rating
How it was run: as §1

rice (Oryra sativa) = experiment: Test B flooded paddy test; conditions: Oryza sativa, Flood, 250 g ai/ha, read-out: Rice plant response rating
How it was run: as §1

[4] = tested on: ragweed (common ragweed, Ambrosia elatior); experiment: Test A preemergence; conditions: Ambrosia artemisiifolia, pre-emergence, 240 h; for pest or weed control at 125 g/ha: 125 g ai/ha, Preemergence, visual injury rating after approximately 10 d, read-out: Ragweed plant response rating (0 to 100 scale, 0 is no effect, 100 is complete control); for pest or weed control at 500 g/ha: 500 g ai/ha, preemergence, visual injury rating about 10 d after treatment, 0 to 100 scale (0 no effect, 100 complete control), read-out: Ragweed plant response rating
How it was run: (§2)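 Visual injury, scored on a 0–100 scale relative to untreated controls, was recorded about 10 d after application. Treatments were a preemergence soil spray over planted seeds or a postemergence spray on plants at the one- to two-leaf stage, 2 to 10 cm tall, all in loam soil–sand blend in the greenhouse.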

[5] = tested on: pigweed (Amaranthus retroflexus); experiment: Test A preemergence; conditions: Amaranthus retroflexus, pre-emergence, 240 h; for pest or weed control at 125 g/ha: 125 g ai/ha, Preemergence, visual injury rating after approximately 10 d, read-out: Pigweed plant response rating (0 to 100 scale, 0 is no effect, 100 is complete control); for pest or weed control at 500 g/ha: 500 g ai/ha, preemergence, visual injury rating about 10 d after treatment, 0 to 100 scale (0 no effect, 100 complete control), read-out: Pigweed plant response rating
[6] = tested on: ryegrass, Italian (Italian ryegrass, Lolium multiflorum); experiment: Test A preemergence; conditions: Lolium multiflorum, pre-emergence, 240 h; for pest or weed control at 125 g/ha: 125 g ai/ha, Preemergence, visual injury rating after approximately 10 d, read-out: Ryegrass, Italian plant response rating (0 to 100 scale, 0 is no effect, 100 is complete control); for pest or weed control at 500 g/ha: 500 g ai/ha, preemergence, visual injury rating about 10 d after treatment, 0 to 100 scale (0 no effect, 100 complete control), read-out: Ryegrass, Italian plant response rating
How it was run: as §2

[7] = tested on: barnyardgrass (Echinochloa crus-galli); experiment: Test A preemergence; conditions: Echinochloa crus-galli, pre-emergence, 240 h; for pest or weed control at 125 g/ha: 125 g ai/ha, Preemergence, visual injury rating after approximately 10 d, read-out: Barnyardgrass plant response rating (0 to 100 scale, 0 is no effect, 100 is complete control); for pest or weed control at 500 g/ha: 500 g ai/ha, preemergence, visual injury rating about 10 d after treatment, 0 to 100 scale (0 no effect, 100 complete control), read-out: Barnyardgrass plant response rating
How it was run: as §2

Kochia (Kochia scoparia) = experiment: Test A preemergence; conditions: Bassia scoparia, pre-emergence, 240 h; for pest or weed control at 125 g/ha: 125 g ai/ha, Preemergence, visual injury rating after approximately 10 d, read-out: Kochia plant response rating (0 to 100 scale, 0 is no effect, 100 is complete control); for pest or weed control at 500 g/ha: 500 g ai/ha, preemergence, visual injury rating about 10 d after treatment, 0 to 100 scale (0 no effect, 100 complete control), read-out: Kochia plant response rating
How it was run: as §2

[8] = tested on: giant foxtail (Setaria faberii); experiment: Test A preemergence; conditions: Setaria faberi, pre-emergence, 240 h; for pest or weed control at 125 g/ha: 125 g ai/ha, Preemergence, visual injury rating after approximately 10 d, read-out: Foxtail, Giant plant response rating (0 to 100 scale, 0 is no effect, 100 is complete control); for pest or weed control at 500 g/ha: 500 g ai/ha, preemergence, visual injury rating about 10 d after treatment, 0 to 100 scale (0 no effect, 100 complete control), read-out: Foxtail, Giant plant response rating
How it was run: as §2

[9] = tested on: ragweed (common ragweed, Ambrosia elatior); experiment: Test A postemergence; conditions: Ambrosia artemisiifolia, post-emergence, 240 h, 125 g ai/ha
How it was run: as §2

[10] = tested on: ryegrass, Italian (Italian ryegrass, Lolium multiflorum); experiment: Test A postemergence; conditions: Lolium multiflorum, post-emergence, 240 h, 125 g ai/ha
How it was run: as §2

[11] = tested on: wheat (Triticum aestivum); experiment: Test A postemergence; conditions: Triticum aestivum, post-emergence, 240 h, 125 g ai/ha
How it was run: as §2

[12] = tested on: giant foxtail (Setaria faberii); experiment: Test A postemergence; conditions: Setaria faberi, post-emergence, 240 h; for pest or weed control at 125 g/ha: 125 g ai/ha; for pest or weed control at 500 g/ha: 500 g ai/ha, visual injury, 0 to 100 scale (0 no effect, 100 complete control)
How it was run: as §2

[13] = scale of 0 to 100 where 0 is no effect and 100 is complete control
[14] = Postemergence, visual injury after approximately 10 d, 0 to 100 scale where 0 is no effect and 100 is complete control, read-out: Plant response rating, Ragweed
[15] = Postemergence, visual injury after approximately 10 d, 0 to 100 scale where 0 is no effect and 100 is complete control, read-out: Plant response rating, Ryegrass, Italian
[16] = Postemergence, visual injury after approximately 10 d, 0 to 100 scale where 0 is no effect and 100 is complete control, read-out: Plant response rating, Wheat
[17] = Postemergence, visual injury after approximately 10 d, 0 to 100 scale where 0 is no effect and 100 is complete control, read-out: Plant response rating, Foxtail, Giant
[18] = 0 to 100 scale where 0 is no effect and 100 is complete control
[19] = postemergence, visual injury on 0 to 100 scale (0 no effect, 100 complete control), approx. 10 d, read-out: Ragweed plant response rating
[20] = postemergence, visual injury on 0 to 100 scale (0 no effect, 100 complete control), approx. 10 d, read-out: Ryegrass, Italian plant response rating
[21] = postemergence, visual injury on 0 to 100 scale (0 no effect, 100 complete control), approx. 10 d, read-out: Wheat plant response rating
[22] = postemergence, visual injury on 0 to 100 scale (0 no effect, 100 complete control), approx. 10 d, read-out: Foxtail, Giant plant response rating
[23] = postemergence, approx. 10 d, read-out: Plant response rating, Foxtail, Giant

Row | SMILES | pest or weed control at 250 g/ha [1, 13] [%] | pest or weed control at 250 g/ha [2, 13] [%] | pest or weed control at 250 g/ha [3, 13] [%] | pest or weed control at 250 g/ha (rice (Oryra sativa); [13]) [%] | pest or weed control at 125 g/ha [4] [%] | pest or weed control at 500 g/ha [4] [%] | pest or weed control at 125 g/ha [5] [%] | pest or weed control at 500 g/ha [5] [%] | pest or weed control at 125 g/ha [6] [%] | pest or weed control at 500 g/ha [6] [%] | pest or weed control at 125 g/ha [7] [%] | pest or weed control at 500 g/ha [7] [%] | pest or weed control at 125 g/ha (Kochia (Kochia scoparia)) [%] | pest or weed control at 500 g/ha (Kochia (Kochia scoparia)) [%] | pest or weed control at 125 g/ha [8] [%] | pest or weed control at 500 g/ha [8] [%] | pest or weed control at 125 g/ha [9, 14] [%] | pest or weed control at 125 g/ha [10, 15] [%] | plant injury at 125 g/ha [11, 16] [%] | pest or weed control at 125 g/ha [12, 17] [%] | also measured
1 | Cc1ccc([C@H]2CNC(=S)[C@@H]2C(=O)Nc2ccccc2F)cc1 (racemic) [Compound 945] | 0 | 85 | 0 | 0 | 0 | 0 | 0 | 0 | 0 | 0 | 60 | 90 | 0 | 0 | 0 | 70 | 0 | 0 | 0 | 0 | 
2 | Cc1ccc([C@H]2CNC(=S)[C@@H]2C(=O)Nc2cccc(F)c2F)cc1 (racemic) [Compound 946] | 0 | 0 | 0 | 0 | 0 | 0 | 0 | 0 | 0 | 0 | 60 | 80 | 0 | 50 | 0 | 20 | 0 | 0 | 0 | 0 | 
3 | O=C(Nc1cccc(F)c1F)[C@H]1C(=S)NC[C@@H]1c1ccc(C(F)(F)F)cc1 (racemic) [Compound 1048] |  |  |  |  | 50 | 80 | 80 | 90 | 20 | 40 | 90 | 90 | 90 | 90 | 90 | 90 |  |  |  |  | pest or weed control at 250 g/ha [1, 18]: 30%; pest or weed control at 250 g/ha [2, 18]: 50%; pest or weed control at 250 g/ha [3, 18]: 0%; pest or weed control at 250 g/ha (rice (Oryra sativa); [18]): 0%; pest or weed control at 125 g/ha [9, 19]: 0%; pest or weed control at 125 g/ha [10, 20]: 30%; plant injury at 125 g/ha [11, 21]: 20%; pest or weed control at 125 g/ha [12, 22]: 60%; pest or weed control at 500 g/ha [12, 23]: 80%
4 | O=C(Nc1ccccc1C(F)(F)F)[C@H]1C(=S)NC[C@@H]1c1ccc(C(F)(F)F)cc1 (racemic) [Compound 1049] |  |  |  |  | 20 | 40 | 0 | 60 | 0 | 30 | 30 | 70 | 30 | 70 | 80 | 90 |  |  |  |  | pest or weed control at 250 g/ha [1, 18]: 20%; pest or weed control at 250 g/ha [2, 18]: 70%; pest or weed control at 250 g/ha [3, 18]: 0%; pest or weed control at 250 g/ha (rice (Oryra sativa); [18]): 0%; pest or weed control at 125 g/ha [9, 19]: 0%; pest or weed control at 125 g/ha [10, 20]: 0%; plant injury at 125 g/ha [11, 21]: 0%; pest or weed control at 125 g/ha [12, 22]: 70%; pest or weed control at 500 g/ha [12, 23]: 80%
